Measurements taken from the supplement of paper PMC10307832.

Assays:
Assay in all cases: relative viability (nuclei count vs DMSO), 5 days (fraction); higher = more cells survive
17-AAG + Palbociclib = compound: C=CCNC1=C2C[C@@H](C)C[C@H](OC)[C@H](O)[C@@H](C)/C=C(\C)[C@H](OC(N)=O)[C@@H](OC)/C=C\C=C(/C)C(=O)NC(=CC1=O)C2=O [17-AAG] + CC(=O)c1c(C)c2cnc(Nc3ccc(N4CCNCC4)cn3)nc2n(C2CCCC2)c1=O [Palbociclib] (partner 0.5 µM)
In short: (§1)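 Relative viability equals treated-well nuclei counts divided by vehicle-well nuclei counts. Counts came from 4× images of lung cancer cell lines grown in 1536-well plates for 5 days after pin-tool dosing on the day after seeding. Dosing used one drug alone or a fixed anchor-drug dose plus five library-drug doses (not always all listed) in √10 steps, and values are medians of duplicate plates.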

17-AAG + Foretinib = compound: C=CCNC1=C2C[C@@H](C)C[C@H](OC)[C@H](O)[C@@H](C)/C=C(\C)[C@H](OC(N)=O)[C@@H](OC)/C=C\C=C(/C)C(=O)NC(=CC1=O)C2=O [17-AAG] + COc1cc2c(Oc3ccc(NC(=O)C4(C(=O)Nc5ccc(F)cc5)CC4)cc3F)ccnc2cc1OCCCN1CCOCC1 [Foretinib] (partner 0.25 µM)
In short: as §1

17-AAG + Pictilisib = compound: C=CCNC1=C2C[C@@H](C)C[C@H](OC)[C@H](O)[C@@H](C)/C=C(\C)[C@H](OC(N)=O)[C@@H](OC)/C=C\C=C(/C)C(=O)NC(=CC1=O)C2=O [17-AAG] + CS(=O)(=O)N1CCN(Cc2cc3nc(-c4cccc5[nH]ncc45)nc(N4CCOCC4)c3s2)CC1 [Pictilisib] (partner 1 µM)
In short: as §1

17-AAG + Bortezomib = compound: C=CCNC1=C2C[C@@H](C)C[C@H](OC)[C@H](O)[C@@H](C)/C=C(\C)[C@H](OC(N)=O)[C@@H](OC)/C=C\C=C(/C)C(=O)NC(=CC1=O)C2=O [17-AAG] + CC(C)C[C@H](NC(=O)[C@H](Cc1ccccc1)NC(=O)c1cnccn1)B(O)O [Bortezomib] (partner 0.002 µM)
In short: as §1

| Cell Line | relative viability (17-AAG + Palbociclib; first compound 0.00128 µM) | relative viability (17-AAG + Palbociclib; first compound 0.004048 µM) | relative viability (17-AAG + Palbociclib; first compound 0.0128 µM) | relative viability (17-AAG + Palbociclib; first compound 0.04048 µM) | relative viability (17-AAG + Palbociclib; first compound 0.128 µM) | relative viability (17-AAG + Foretinib; first compound 0.00128 µM) | relative viability (17-AAG + Foretinib; first compound 0.004048 µM) | relative viability (17-AAG + Foretinib; first compound 0.0128 µM) | relative viability (17-AAG + Foretinib; first compound 0.04048 µM) | relative viability (17-AAG + Foretinib; first compound 0.128 µM) | relative viability (17-AAG + Pictilisib; first compound 0.00128 µM) | relative viability (17-AAG + Pictilisib; first compound 0.004048 µM) | relative viability (17-AAG + Pictilisib; first compound 0.0128 µM) | relative viability (17-AAG + Pictilisib; first compound 0.04048 µM) | relative viability (17-AAG + Pictilisib; first compound 0.128 µM) | relative viability (17-AAG + Bortezomib; first compound 0.00128 µM) | relative viability (17-AAG + Bortezomib; first compound 0.004048 µM) | relative viability (17-AAG + Bortezomib; first compound 0.0128 µM) | relative viability (17-AAG + Bortezomib; first compound 0.04048 µM) | relative viability (17-AAG + Bortezomib; first compound 0.128 µM) |
| --- | --- | --- | --- | --- | --- | --- | --- | --- | --- | --- | --- | --- | --- | --- | --- | --- | --- | --- | --- | --- |
| NCI-H1395 | 0.632 | 0.61 | 0.532 | 0.373 | 0.384 | 0.963 | 0.988 | 0.843 | 0.396 | 0.318 | 0.659 | 0.614 | 0.381 | 0.354 | 0.435 |  |  |  |  |  |
| NCI-H1563 |  |  |  |  |  | 1.04 | 0.83 | 0.559 | 0.549 | 0.5 | 0.67 | 0.647 | 0.604 | 0.614 | 0.563 | 0.855 | 0.702 | 0.597 | 0.573 | 0.469 |
| NCI-H1648 |  | 0.348 | 0.32 | 0.431 | 0.387 |  |  |  |  |  |  |  |  |  |  |  |  |  |  |  |
| NCI-H1703 |  |  |  |  |  | 0.325 | 0.331 | 0.215 | 0.229 | 0.191 | 0.235 | 0.181 | 0.188 | 0.168 | 0.141 | 0.316 | 0.154 | 0.145 | 0.153 | 0.138 |
| NCI-H1792 | 0.592 | 0.635 | 0.542 | 0.459 | 0.278 |  |  |  |  |  | 0.326 | 0.308 | 0.253 | 0.171 | 0.143 | 0.912 | 0.807 | 0.839 | 0.802 | 0.137 |
| NCI-H1793 | 0.345 | 0.295 | 0.208 | 0.14 | 0.17 | 0.63 | 0.622 | 0.442 | 0.165 | 0.161 | 0.309 | 0.172 | 0.193 | 0.188 | 0.144 |  |  |  |  |  |
| NCI-H1944 | 0.331 | 0.341 | 0.3 | 0.281 | 0.151 | 0.974 | 0.896 | 0.735 | 0.216 | 0.175 | 0.352 | 0.349 | 0.324 | 0.28 | 0.24 |  |  |  |  |  |
| NCI-H2170 | 0.397 | 0.385 | 0.324 | 0.192 | 0.115 | 0.961 | 1.01 | 0.955 | 0.607 | 0.328 | 0.279 | 0.284 | 0.167 | 0.153 | 0.175 |  |  |  |  |  |
| NCI-H2342 | 0.458 | 0.542 | 0.504 | 0.495 | 0.525 | 0.97 | 1.04 | 0.968 | 0.846 | 0.374 |  |  |  |  |  |  |  |  |  |  |
| SK-MES-1 | 0.347 | 0.394 | 0.281 | 0.211 | 0.164 | 1 | 0.997 | 0.501 | 0.192 | 0.154 | 0.414 | 0.387 | 0.139 | 0.134 | 0.1 |  |  |  |  |  |
| SW 900 | 0.575 | 0.511 | 0.277 | 0.192 | 0.125 | 0.868 | 0.735 | 0.39 | 0.119 | 0.0963 |  |  |  |  |  |  |  |  |  |  |
